Measured values taken from US20220073557A1, “FLUORINATED BILE ACIDS” (NZP UK LIMITED, priority 2018, published 2022).
Read-outs that look alike come from different tables or passages of the source.

How the values were obtained:
Format in all cases: cell-based, human
[1] = tested on: dopaminergic neurons derived from sPD patients (iNeurons); assay: Mitochondrial function and neuronal morphology measurements in iNeurons from sPD patients; conditions: iNeurons from sPD patients; for EC50: Homo sapiens, Neuron
Protocol: Fibroblasts were cultured in DMEM (Invitrogen) and routinely subcultured every 3-5 days using trypsin to dissociate them.
(§1) Briefly, iNPCs are plated in a 6-well plate and cultured for 2 days in DMEM/F-12 medium with Glutamax™ supplemented with 1% NEAA, 2% B27 (Gibco) and 2.5 μM of DAPT. On day 3, DAPT is removed and the medium is supplemented with 1 μM smoothened agonist (SAG) and FGF8 (75 ng/ml) for additional 10 days. Neurons are replated at this stage. Subsequently SAG and FGF8 are withdrawn and replaced with BDNF (30 ng/ml), GDNF (30 ng/ml), TGF-b3 […] and dcAMP (2 mM, Sigma) for 15 days.
Cells are plated in 96 well plates; for live imaging cells are incubated for one hour at 37 degree with 80 nM tetramethlyrhodamine (TMRM), 1 μM LysoTracker® Green (Invitrogen) and Hoechst Stain solution (Sigma) at 1 μM before imaging using Opera Phenix™. Cellular ATP measurements are undertaken using ATPlite kit (Perkin Elmer) as per manufacturer's instructions. Mitochondrial reactive oxygen species generation was assessed using mitochondrial NpFR2 (probe; a kind gift from Dr Liz New, University of Sydney, Australia) at 20 μM and Hoechst stain solution at 1 μM for 30 mins at 37° C., then the dyes are removed and cells images using Opera Phenix™. Images generated from the live imaging experiments were analysed using Harmony® (Perkin Elmer software). We developed protocols in order to segment nucleus, cell boundary and processes, mitochondria, lysosomes, autophagosomes. We only analysed the z projection images collected from the z stacks.

[2] = tested on: sporadic PD patient fibroblast lines; assay: Seahorse assay (oxygen consumption, extracellular acidification rate) in sPD fibroblasts; conditions: Homo sapiens, Fibroblast; concentration at which compounds were dosed in the seahorse assay; read-out: EC90 concentration
Protocol: Fibroblasts are plated into Seahorse 24 well plates with 50,000 cells per well. Cells are left to attach for 2 days. Media is changed to Seahorse DMEM media with glucose and sodium pyruvate and left to equilibrate at 37 degrees normal air CO2 for 1 hour. The plate is entered into the Seahorse machine and run on a program of mix (2 minutes), wait (3 minutes) and measure (3 minutes). After three measurements of basal respiration and ECAR; 0.5 μM oligomycin is injected after which another three measurements are taken; then 0.5 μM of FCCP is injected and three measurements taken and finally 1 μM rotenone is injected and three measurements taken. After all measurements are complete, cells are stained with 10 μM Hoescht and imaged using the InCell to count the number of cells per well for normalisation. This classical ritochondrial stress test experimental protocol allows us to calculate the basal mitochondrial respiration, ATP linked respiration (the amount which is coupled to ATP generation), the maximal and spare respiratory capacity, the non-mitochondrial respiration rate and the extracellular acidification rate which is a proxy measure of glycosolysis.

[3] = tested on: dopaminergic neurons derived from sPD patients (iNeurons); assay: Dopamine ELISA in iNeurons; conditions: untreated sPD 0
Protocol: as §1
Dopamine ELISA is performed using Dopamine research ELISA kit (Labor Diagnostika Nord GmbH&Co. KG) as per manufacturers instructions. Dopamine release is obtained incubating the cells at 37° C. using three different conditions at the same time per line. Medium is removed in all wells then the first well is incubated with HBSS with Ca^2+ and Mg^2+ (Gibco by Life Technologies) for 30 minutes, the second well is incubated in HBSS with Ca^2+ and Mg^2+ for 15 minutes and then 56 mM KCl (Fisher chemical) is added for another 15 minutes and the third well is incubated with HBSS without Ca^2+ and Mg^2+ (Gibco by Life Technologies) but with 2 mM EDTA for 15 min and then 56 mM KCl is added for another 15 minutes. Straight away media is collected in an eppendorf and cells are harvested using Accutase®, centrifuge at 400 g for 4 min and resuspended in 10 μl of PBS. […]

[4] = tested on: sAD and familial AD (PSEN1 mutants) patient fibroblasts; assay: Total cellular ATP levels in Alzheimer's disease patient fibroblasts; conditions: 24 hour treatment at 100 nM, 21% restores to control levels
Protocol: Briefly, fibroblasts were cultured as and plated into white 384 well plates with 5000 cells per well in 50 μl of media volume. The plates are left overnight in an incubator to allow the fibroblasts to adhere to the plate surface. The following morning the Glucose based medium is replaced with 25 μl of Galactose based medium. The compounds are added to the plates using a ECHO 550 liquid handling system. The wells were dosed to provide an 8-point concentration range of 0.06 nM-300 nM of compound. After dosing the wells are topped up with a further 25 μl of Galactose based medium and then left in an incubator for 24 hours. Following this incubation the medium is removed from the plate and the wells are washed twice with sterile PBS. The wells are filled with 25 μl of Sterile PBS followed by 12.5 μl of Lysis solution from the ATPlite™ Luminescence ATP detection assay system (Perkin Elmer), including 16 cell free wells to use as blank controls. The plate is then placed on a rotary shaker for 5 mins at 700 rpm. Following the shaking 12.5 μl of ATP substrate solution (Perkin Elmer) is added to each well and a further 5 min of shaking. The plate is then placed in darkness for 10 minutes prior to reading. Using a PHERAStar® plate reader, luminescence intensity is recorded. Following the ATP assay the plates are immediately assayed for DNA content in a CyQUANT® assay.
Immediately following The ATP assay DNA content is assessed with the CyQUANT® NF Cell Proliferation Assay Kit (ThermoFisher). CyQUANT® buffer is prepared immediately before the assay and is comprised of 1 ul CyQUANT® dye per ml×1 HBSS solution. 12.5 ul of CyQUANT® buffer is added to each well. Plate left in incubator for 1 hour then read on a PHERAStar® Plate reader with excitation at 497 nm and emission at 520 nm.
Data shown in the Table 6 below is the mean increase in ATP levels after 24 hour treatment with compounds at 100 nM concentration.

[5] = tested on: dopaminergic neurons derived from sPD patients (iNeurons); assay: Activated caspase 3 immunofluorescence staining in iNeurons; conditions: untreated sPD 162
Protocol: as §1
Cells are plated into 96 well plates and fixed using 4% paraformaldehyde for 30 minutes. After PBS washes cells are permeabilised using 0.1% Triton™ X-100 for 10 minutes and blocked using 5% goat serum for 1 hour. Cells are incubated with primary antibodies tyrosine hydroxylase (St John's Laboratory); DAT (Abcam); Tuj (Millipore); Tom20 (BD Biosciences); activated caspase 3 (Cell Signaling); alpha synuclein (Cell Signaling); phosphorylated alpha synuclein (Millipore) at 4° C. for 16 hours. Cells are washed using PBS-Tween® and incubated with Alexa Fluor™-conjugated secondary antibodies 488 and 568 (Invitrogen) and Hoescht (Sigma) 1 μM prior to imaging. Imaging was performed using the Opera Phenix™ high content imaging system (Perkin Elmer).

- EC50 ([1]; read-out: ATP EC50): 5 nM
- EC50 ([1]; read-out: MMP EC50): 7.3 nM
SMILES: C[C@H](CCC(=O)O)[C@H]1CC[C@H]2[C@@H]3[C@@H](O)C[C@@H]4C[C@H](O)CC[C@]4(C)[C@H]3CC[C@]12C [UDCA, ursodeoxycholic acid, reference compound]
- Neuronal morphology (elongation; % controls) ([1]; untreated sPD 48): 64 % controls
- ATP normalisation (% of controls) ([1]; untreated sPD 50): 82 % of controls
- MMP normalisation (% of controls) ([1]; untreated sPD 52): 73 % of controls
- ROS (Normalisation) (% controls) ([1]; untreated sPD 115): 110 % controls
- EC90 [2]: 100 nM
- Dopamine level (increase in dopamine release) [3]: No effect
- % increase over vehicle treated (mean increase in ATP levels) [4]: 12%
- Activated caspase 3 levels [5]: 143 % of level in iNeurons from Controls
